# Measured values taken from patent US7271187B2, “Compositions and methods for promoting tissue regeneration” (priority 2000, dated 2007).
# Entries after “also recorded” stand apart in the source; their conditions may differ.
# Experiments:
# passaged astrocytes = experiment: Highly enriched passaged astrocyte cultures, immunostaining; assay type: cell-based, rat; settings: astrocytes passaged 3 times; untreated controls at a significantly reduced level
# Method: The method of the invention is also exemplified by a third embodiment in which astrocytes are passaged 3 times prior to in vitro treatment with the compound and samples derived from the whole cortex were compared to samples enriched for tissue from the subventricular zone.
# For some experiments, freshly dissociated cortical cells were plated in poly lysine coated T-75 flasks. Cells were fed twice weekly with DMEM+10% FBS. After reaching confluence, cells were removed from the T-75 flask with typsin/EDTA (Gibco), pelleted and media removed. The cell pellet was resuspended in DMEM+10% FBS and split 1 to 5 into new T-75 flasks. This process was repeated 2 more times. After reaching confluence on the fourth passage, cells were removed from the T-75 flask as describe above and plated on poly lysine coated 24 well cluster plates at a density of 1×10^5 cells per well. Cells were maintained in DMEM+10% FB S until they reached confluence at which point, the media was removed and replaced with NeuralBasal+B27 supplementsN-[4-[(4-fluorophenyl)sulfonyl]phenyl]acetamide was dissolved in 2 hydroxypropyl-β-cyclodextrin and added to cultures at final concentrations ranging from 100 μg/ml to 10 ng/ml. […]
# [1] = system: Fischer F344 female rats, spinal cord contusion injury; experiment: Spinal cord contusion injury, injection of bone marrow cells from treated donors into the cavity; assay type: in vivo, rat; settings: recipients of bone marrow cells from donors given 100 mg/kg orally
# Text: In some embodiments of the invention, cells, preferably bone marrow cells, can be transferred from a first animal treated according to methods of the invention to a site of chronic spinal cord injury in the first animal or in a second animal.
# Fischer F344 female rats (Taconic, Germantown N.Y.) weighing 175-200 g were subjected to 25 mm weight drop contusion injury as previously described (Gruner J A, J. Neurotrauma, 1992 Summer; 9(2):123-8) with slight modifications. Briefly, under isoflurane anethesia, a laminectomy exposing the T8-9 spinal cord segment was performed and a rod weighing 10 g was dropped on the exposed cord from 25 mm height. The rod diameter at its end (where cord-rod interaction takes place) is 2.8 mm. A total of 12 rats were injured. Four animals were used as donor animals, eight as recipients. Two donor animals were administered N-[4-[(4-fluorophenyl)sulfonyl]phenyl]acetamide at a dose of 100 mg/kg orally, and two other animals were treated with vehicle (cyclodextrin, 45% in distilled sterile water). […]
# Doseage levels of with N-[4-[(4-fluorophenyl)sulfonyl]phenyl]acetamide was 100 mg/kg at 20 mg/ml. No difference in cavity size was detected comparing saline treated animals and animals treated with bone marrow cells from vehicle treated donors. […]
# [2] = system: compressive injuries to the spinal cords of rats; experiment: Compressive spinal cord injury, closure of cavities; assay type: in vivo, rat; settings: compound in a saline vehicle; vs untreated or saline treated rats
# Text: In another study, cavities are induced by compressive injuries to the spinal cords of rats. In the study, rats are either untreated, treated with a saline vehicle, or treated with N-[4-[(4-fluorophenyl)sulfonyl]phenyl]acetamide in a saline vehicle.
compound,measurement,setting,value
CC(=O)Nc1ccc(S(=O)(=O)c2ccc(F)cc2)cc1 [N-[4-[(4-fluorophenyl)sulfonyl]phenyl]acetamide],beta-tubulin positive cells with neuronal morphologies,passaged astrocytes,show beta-tubulin positive cells with neuronal morphologies
same,cavity size at the injury site,"[1]; four weeks after cell injection, vs saline treated animals",decrease in cavity size at the injury site (approximately half the size)
same,Nestin immunoreactive cells at the edge of the injury cavity,"[1]; vs saline or vehicle treated donors, 100 mg/kg",Nestin immunoreactive cells are observed at the edge of the injury cavity; also recorded: significant increase in cells immunoreactive to nestin
same,extent of closure of the cavity in the spinal cord,[2],most extensive closure of the cavity
